Structures are written as SMILES.

Assay [1] concerns serum IL-6 and IL-12p40. Briefly: In vivo systemic immune activation assay: serum IL-6 and IL-12p40 by ELISA after single subcutaneous injection. More on the design: species or system mice. Particulars: for serum IL-6 / serum IL-12p40: 5 μg subcutaneously in footpad, 95% sesame oil/5% ethanol, ± SEM. The protocol:
Small molecule TLR7 and TLR7/8 agonists derived from the 1H-imidazo[4,5-c]quinoline privileged template (see e.g., Imiquimod, Resiquimod) are known to rapidly distribute to the systemic compartment following intratumoral, subcutaneous, or intramuscular injection. Broad systemic distribution of these agonist compounds in wild-type mice induces TLR7-dependent cytokine responses, primarily in spleen and liver cells, which can subsequently be detected in the serum within 3-6 hours. The rapid increase in serum cytokine biomarkers (e.g., IL-6 and IL-12p40) can be used to assess the kinetics of systemic distribution of a locally administered TLR agonist.
The kinetics of distribution of pharmaceutical compositions comprised of Compound Nos. 63-00, 63-17, or 63-10 formulated in 95% sesame oil/5% ethanol (v/v) were assessed following a single subcutaneous injection in wild-type mice. All in vivo procedures were conducted in accordance with approved Institutional Animal Care and Use Committee (IACUC) protocols. The animals were housed in a facility that is accredited by the Association for Accreditation and Laboratory Animal Care (AALAC, Frederick Md.). Wild-type female BALB/c mice (15-20 gm) were obtained from Envigo (Hayward, Calif.) and acclimated for 2-3 days prior to use.
The pharmaceutical compositions were made with the three compounds, at a final concentration of 200 μg/mL, in a manner similar to that described in Example B2-1. At T=0, groups of 3 mice were anesthetized with 1% isoflurane and injected subcutaneously in the right footpad with 5 μg of each of the three compounds, or a vehicle control, in 25 uL of 95% sesame oil/5% ethanol (v/v). Then, at T=3, 6, and 24 hours, three animals from each group were anesthetized with 1% isoflurane to facilitate blood collection by cardiac puncture. Samples were processed to serum, and stored at −20° C. for further analysis.

Assay [2] has as its system CT26 colon carcinoma. Briefly: Anti-tumor efficacy in combination with anti-PD-1 antibody in dual flank CT26 colon carcinoma-bearing mice. Particulars: 5,000 ng single intratumoral dose day 14, in combination with anti-PD-1. The format is in vivo. The protocol:
All in vivo procedures were conducted in accordance with approved IACUC protocols. The animals were housed in a facility that is accredited by the AALAC. Wild-type female Balb/c mice (15-20 g) were obtained from Envigo (Hayward, Calif.) and acclimated for 2-3 days prior to use.
The pharmaceutical compositions were made using Compound No. 63-10 or 63-33 at final concentrations of 50,000 ng/mL in a manner similar to that described for Example B2-1. […] On day 0, mice were anesthetized with 1% isoflurane, and 80,000 CT26 tumor cells in 200 uL of RMPI-1640 culture media plus 2.5% fetal bovine serum were injected subcutaneously in both the right and left flanks. Tumors (left and right) were allowed to grow until day 8, when the right and left flank tumor sizes had reached approximately 35 mm^3, at which point mice were injected intraperitoneally with 250 μg of anti-PD-1 antibody formulated in phosphate buffered saline or a phosphate buffered saline vehicle control. The anti-PD-1 treatments were repeated on experimental days 12, 15, 19, 22, and 26. On experimental day 14, when the right (injected) and left (distal) flank tumors had reached approximately 100 mm^3, mice were randomized into treatment groups. […] Tumor sizes were measured twice weekly from days 14 through day 29 with calipers, with tumor volumes calculated using the formula: length, multiplied by width, multiplied by width, divided by 2.

As for `CCCCCCCCCCCCCC(=O)NCc1ccc(Cn2c(CCCC)nc3c(N)nc4ccccc4c32)cc1` [Compound No. 63-10, N-(4-((4-amino-2-butyl-1H-imidazo[4,5-c]quinolin-1-yl)methyl)benzyl)tetradecanamide], the figures for the “serum IL-6” value in assay [1] (3 hours), in assay [1] (6 hours) and in assay [1] (24 hours) were 49 ± 32 pg/mL, 33 ± 4 pg/mL and 32 ± 2 pg/mL, respectively. Further, the “serum IL-12p40” value is 1,012±246 pg/mL in assay [1] (3 hours), 2,179±597 pg/mL in assay [1] (6 hours) and 2,436±237 pg/mL in assay [1] (24 hours). Moreover, the “increase in serum cytokines” value in assay [1] (at 3, 6, or 24 hours, 5 μg subcutaneously) is “no detectable increase”. The “tumor growth inhibition in the injected tumor (right flank) compared to the anti-PD-1 treatment alone” value in assay [2] was “greater tumor growth inhibition”. Besides, the “tumor growth inhibition in the distal tumor (left flank) compared to the anti-PD-1 treatment alone” value in assay [2] (day 29) is “no improvement”.

Source of the values: patent publication US11124510B2, “Alkyl chain modified imidazoquinoline TLR7/8 agonist compounds and uses thereof” (Dynavax Technologies Corporation, priority 2017, dated 2021).
